Source: patent US20240059739A1, “PEPTIDES FOR INCREASING DRUG DELIVERY TO CANCER” (Chapman University, priority 2022, published 2024)
Read-outs that look alike come from different tables or passages of the source. Where a SMILES comes first, the peptide text is derived from it.

How the values were obtained:
[1] = tested on: human melanoma cell lines (A375, Sk-mel-28, wm115) compared to normal human HEK-293 cells; assay: Peptide array-whole cell binding assay (CyQUANT fluorescence); assay type: cell-based; details: average fluorescent intensity of melanoma cells (A375, Sk-mel-28, wm115) bound to peptide divided by that of HEK-293 cells bound to same peptide
Text: Peptide array synthesis. Fifty-three peptide sequences were synthesized in duplicate on derivatized cellulose membrane (Intavis, Germany) using a ResPep SL Autospot robot. The detailed method was explained previously (Ahmed et al. Anal Chem. 82:7533-7541, 2010; Hossein-Nejad-Ariani et al. Sci Rep. 9:2723, 2019). Briefly, the sequences of peptides were entered in the robot software, and 384 spot synthesis mode was selected for this library. First, the membrane was dipped in DMF for an hour followed by transfer and support to the holder of the robot on filter paper. Then the membrane was washed with ethanol and subjected to a vacuum to remove any bubbles under the membrane. The Fmoc strategy was used for peptide synthesis. DIC and Oxyma pure were used as coupling reagent and racemization suppressor, respectively. After each coupling, capping of unreacted amino acids was done using acetic anhydride (3%), followed by 20% piperidine for Fmoc deprotection. The C-terminal end of all peptides were bound to the membrane. Following the synthesis, the membrane was dipped in deprotection solution containing 15 mL TFA, 15 mL DCM, 900 μL TIPS, and 600 μL water, and kept for 3 h at room temperature. Next, membranes were thoroughly washed with DCM, DMF, and ethanol. Finally, they were air dried and kept in a sealed bag at −20° C. until use.
Peptide array cell binding assay. The sequential steps of the assay are as described in a previous publication (Ahmed et al. 2010; Soudy et al. J Med Chem. 54:7523-7534, 2011). The membrane was dipped in ethanol for 30 sec to remove any precipitation of hydrophobic peptides. Then the membrane was dipped in sterile PBS at pH 7.4 for 30 min. The cells (75×10^3 cells/mL) were seeded directly on the membrane in a sterile plate and incubated at 37° C. for 4 h. After washing off the unbound cells with sterile PBS, pH 7.4, the membrane was frozen at −80° C. for 2 h. Subsequently, it was defrosted at room temperature and incubated in CyQUANT solution at 37° C. for 30 min following the manufacturer's protocol. The membrane was then washed with sterile PBS and air-dried.
Membranes were scanned using the ChemiDoc™ XRS+system (Bio-Rad) to analyze the fluorescence intensity of each spot. The setting was adjusted based on the excitation and emission wavelength of the CyQUANT dye at 465 nm and 535 nm, respectively. The fluorescence intensity (FI) was normalized by the FI of non-cancerous HEK-293 cells.
A library of 53 peptides was synthesized in an array format on a cellulose membrane using SPOT synthesis (Table 1). The peptide library was designed starting with five lead cancer cell targeting peptides, Arg peptide (1, Table 1), p160 analogue (11), RGD (16), GE11 (20), and LSD (37). Conservative substitutions, deletion from the N- or C-terminus, alanine scan, and scrambling of amino acids were used to design the analogues for the library. The peptides were screened for specific binding to three human melanoma cell lines. The cells were incubated with the cellulose membranes with conjugated peptides followed by incubation with CyQUANT fluorescence dye. A brief schematic for the peptide array-whole cell binding assay for screening peptides with high affinity for melanoma cells is shown in FIG. 2A. The relative cell adhesion capacities of the peptides to A375 (FIG. 2B), Sk-mel-28 (FIG. 2C), and wm115 were estimated based on the fluorescence of the bound melanoma cells compared to normal human HEK-293 cells.

[2] = tested on: human melanoma cells (wm3211, Sk-mel-28, A375); assay: In vitro cellular uptake of FITC-labeled peptides by flow cytometry (FACS); assay type: cell-based; details: 0.5 and 1 μM
Experimental: (§1) The bar represents the average fluorescence density of three cell lines (A375, Sk-mel-28, and wm3211 cells) detected by fluorescence-activated cell sorting (FACS) analysis. The cells were incubated with FITC-labeled peptide for […] at 37° C. (0.5 μM, grey bar; 1 μM, dark bar). The control is cells incubated with FITC alone. […] Cells were either treated with DOX or co-treated with DOX and KK-11 (1 μM) for 72 h (KK-11+DOX) or pretreated with KK-11 for 4 h, then washed away following a DOX 72 h treatment (KK-11 to DOX). Control is DMSO or KK-11 alone. Cell viability was detected by a MTT colorimetric assay. Statistical analysis was performed with a student's t-test, and error bars denote mean±SD; **, p<0.01; ***, p<0.001 compared to DOX alone. […] Cells were treated with MAC-3-190 at various concentrations with or without 1 μM KK-11 for 72 h. Cell viability was detected by MTT assay. The assays were repeated independently at least three times.
In vitro cellular uptake analysis. The peptide (FITC-labeled) concentration was determined using a Shimadzu BioSpec-nano Micro-volume UV-Vis spectrophotometer (Shimadzu). Human melanoma cells (wm3211, Sk-mel-28, and A375) were incubated with FITC or FITC-labeled peptides at final concentrations of 0.5 μM and 1 μM for 2 h. […] The mean fluorescence density of 10,000 cells was analyzed and compared to that of control cells.

[3] = tested on: human melanoma A375 tumor xenografts and organs; assay: In vivo and ex vivo imaging of biodistribution in mice bearing A375 xenografts; design: species or system athymic nude mice; details: for time at which fluorescence is evident in tumor xenografts: 8 μg per mouse, tail vein
Experimental: FIG. 4A and FIG. 4B-1 and FIG. 4B-2 show in vivo and ex vivo organ distribution images of VivoTag 680 XL-labeled D-aa KK-11 in athymic nude mice bearing human melanoma A375 tumors. Saline or VivoTag-KK-11 in a dose of 8 μg per mouse was injected into the mice via the tail vein (n=2 for each time point).
The top panels represent the scanned images of the tumor section area in coronal views. The bottom-row pictures display the fluorescence image in trans-axial views: arrows point to the spine, and circles mark the xenograft tumors.
Organs including tumor xenografts (T), liver (L), spleen (S), heart and lungs (H+L), kidneys (K), and brain (B) were excised and imaged using the IVIS Spectrum imaging system. Representative fluorescence images of different organs show peptide distribution at different time points as indicated.
Ex vivo and in vivo imaging. The study was carried out in compliance with Animal Research: Reporting of In Vivo Experiments (ARRIVE) guidelines. All the animal procedures were approved by the Institutional Animal Care and Use Committee (IACUC) at Chapman University and conducted in compliance with the policies of Chapman University, and federal, state, and local animal welfare authorities. Male and female athymic nude mice (4-6 weeks old) were kept (5 in each cage) in a pathogen-free environment. Approximately 10^6 human melanoma A375 cells (0.1 mL in normal saline), mixed with 0.1 mL cold Matrigel (#354248; Corning, Corning, NY), were injected subcutaneously in the flank. The tumor size was measured with a caliper, and body weight was recorded once a week. When the tumor size reached approximately 800-1000 mm^3 as calculated using the following formula: [Length×(Width^2)]/2 (in mm), mice were processed for in vivo or ex vivo imaging.
For in vivo imaging, normal saline or VivoTag-KK-11 at a dose of 8 μg per mouse was injected into the mice via the tail vein (n=2 for each time point). The animals were then scanned at different time intervals (0.5, 2, 6, and 24 h) using an IVIS Spectrum in vivo imaging system (PerkinElmer, Waltham, MA). The mice were imaged for 0.5 sec, 10 bin, level B at an emission wavelength of 688±5 nm. Imaging was limited to no more than once a day and was conducted under continuously maintained isoflurane. Mice were maintained on alfalfa-free diets to minimize the background fluorescence. All the study animals survived through the in vivo imaging procedure.
For ex vivo imaging at defined time intervals (5, 15, 30 min, followed by 1, 1.5, 2, 3, 4, 6, 24, and 48 h) following fluorescence conjugate injection, animals were euthanized via carbon dioxide inhalation (n=2 for each time point); tumor, liver, spleen, heart, lungs, brain, and kidneys were collected and briefly rinsed with saline. The organs were then imaged for 0.5 sec, 10 bin, level B at an emission wavelength of 688±5 nm using an IVIS Spectrum imaging system.

A375 melanoma cells = assay: In vitro cytotoxicity detected by MTT colorimetric assay; assay type: cell-based, human
Experimental: as §1
In vitro cytotoxicity detected by MTT colorimetric assay. Cells were seeded in a 96-well plate and allowed to adhere overnight prior to adding the compound. After 72 h of treatment in serum-free media, an MTT solution was added to each well to give a final concentration of 0.5 mg/mL and was incubated for 3 h. Formed crystals were solubilized, and the absorbance was measured at 595 nm.

[4] = Serum stability (RP-HPLC AUC of intact peptide); assay type: in vitro ADME; details: 37° C.
Experimental: Serum stability. Human serum (250 μL) was thawed to room temperature and was added to DMEM media (650 μL). The mixture was kept in a 37° C. incubator to mimic human body temperature for 15 min. The peptide (100 μL, 1 mM) was dissolved (dispersed) in sterile water. The peptide solution was added to the pre-warmed human serum and DMEM mixture. The mixture was incubated at 37° C. At different time points (0, 0.5, 1, 5, and 24 h) aliquots (100 μL) were removed and added to methanol (200 μL). Each time point sample was kept at 4° C. for 5 min and then was centrifuged at 500×g for 15 min to separate serum proteins. The supernatant was injected into the RP-HPLC, and the major peaks were collected. The peak's mass was determined using MALDI-TOF mass analysis. The serum stabilities of the D-aa KK-11 were determined by comparing the HPLC peaks (AUC) for the intact peptides at different time points.
For in vivo studies, peptide KK-11 was labeled with a fluorescent Vivotag 680 XL in the N-terminus (Scheme 1). In addition, two amino acids in the sequence (norleucine and arginine) were substituted with D-amino acids to increase proteolytic stability. These amino acids were identified as proteolytically labile sites. The D-aa KK-11 peptide was assembled on acid-labile Rink amide resin and was characterized. The proteolytic stability of the D-aa KK-11 peptide was evaluated by incubating with human serum. The presence of the intact peptide after incubation with human serum for different time periods was detected using RP-HPLC and confirmed by MALDI-TOF mass analysis. […] However, peptide KK-11 with all L-amino acids reduced to an undetectable level within 30 min (data not shown). For conjugating VivoTag 680 XL dye, the peptide was modified by incorporating a β-alanine moiety generating the precursor Aβ-KK-11. The structure and mass of Aβ-KK-11 were confirmed by NMR (^1H and ^13C) and MALDI-TOF [M+H]^+ 1588.5 Da. Next, the β-alanine terminal amino group was allowed to react with the succinimidyl ester group of the reactive fluorophore (VivoTag 680 XL) under basic conditions in polar aprotic solvent, generating the fluorescently labeled peptide with extrusion of N-hydroxysuccinimide (NHS) (Scheme 1). The mass of the fluorescence-labeled VivoTag-Aβ-KK-11 was confirmed by MALDI-TOF, showing a peak at 2823.4 Da, corresponding to [M+H]^+.

[5] = in vivo IVIS CT-fluorescence imaging of live mice

GRRPRPRPRP [Peptide 1, FITC-labeled (β-alanine spacer) in the uptake study]
Fluorescence Ratio [1]: 1.82 | uptake by melanoma cells (in words) [2]: significantly increased uptake

VivoTag- Aβ-VPWxEPAYQrFL [VivoTag-KK-11]
brain penetration ([3]; ex vivo imaging): no brain penetration was observed | time by which cleared from other organs (lungs, heart, spleen) ([3]; ex vivo imaging): ≤ 6 h | time detected in kidneys ([3]; ex vivo imaging): up to 48 h | time at which fluorescence is evident in tumor xenografts ([3]; ex vivo imaging): ≤ 5 min | time by which distributed to the xenograft tumor [3, 5]: ≤ 30 min | time fluorescence remained detectable in tumor xenografts [3, 5]: 25 h

COc1cccc2c1C(=O)c1c(O)c3c(c(O)c1C2=O)C[C@@](O)(C(=O)CO)C[C@@H]3O[C@H]1C[C@H](N)[C@H](O)[C@H](C)O1 [DOX, doxorubicin]
viability at 0.5 µM (A375 melanoma cells; Homo sapiens, A-375, 72 h, DOX 0.5 μM alone, 72 h, A375, read-out: cell viability, of control): 62% | viability at 1 µM (A375 melanoma cells; Homo sapiens, A-375, 72 h, DOX 0.5 μM co-treatment with KK-11 (1 μM), 72 h, A375, read-out: cell viability, of control): 40% | viability at 1 µM (A375 melanoma cells; Homo sapiens, A-375, 72 h, DOX 1 μM alone, 72 h, A375, read-out: cell viability (cells survived)): 24% | viability at 1 µM (A375 melanoma cells; Homo sapiens, A-375, 72 h, DOX 1 μM in combination with KK-11 (1 μM), 72 h, A375, read-out: cell viability, of control): 14% | change of DOX cytotoxicity (A375 melanoma cells; KK-11 and DOX sequentially (KK-11 pretreatment 4 h, washed, then DOX 72 h)): failed to produce any changes on DOX cytotoxicity

CCCC[C@@H](NC(=O)[C@H](Cc1c[nH]c2ccccc12)NC(=O)[C@@H]1CCCN1C(=O)[C@@H](N)C(C)C)C(=O)N[C@@H](CCC(=O)O)C(=O)N1CCC[C@H]1C(=O)N[C@@H](C)C(=O)N[C@@H](Cc1ccc(O)cc1)C(=O)N[C@@H](CCC(N)=O)C(=O)N[C@H](CCCNC(=N)N)C(=O)N[C@@H](Cc1ccccc1)C(=O)N[C@@H](CC(C)C)C(N)=O [D-aa KK-11, VPWxEPAYQrFL] (HELM PEPTIDE1{V.P.W.[CCCC[C@@H](N[*:1])C(=O)[*:2]].E.P.A.Y.Q.[dR].F.L.[am]}$$$$V2.0; N-terminus assumed)
remaining at 5 h, 100 µM ([4]; human serum (25% v/v in DMEM), 5 h, read-out: area under the curve of the peptide peak, of control (t=0 h)): 97.4% | remaining at 24 h, 100 µM ([4]; human serum (25% v/v in DMEM), 24 h, read-out: area under the curve of the peptide peak / peptide remaining, of control (t=0 h)): 45.3% | area under the curve of the peptide peak / peptide remaining, of control (t=0 h) ([4]; human serum, 24 h): 45.3% | time at which fluorescence is evident in tumor xenografts ([3]; ex vivo imaging): ≤ 5 min | time fluorescence remained detectable in tumor xenografts ([3]; ex vivo imaging, single tail vein injection): up to 24 h
